Patent US7872030B2, “Use of 2-[5-(4-fluorophenyl)-3-pyridylmethylaminomethyl]-chromane and its physiologically acceptable salts” (Merck Patent GmbH, priority 2001, dated 2011)

Tests used:
[1] = system: Parkinsonian cynomolgus monkey; assay: MPTP Parkinsonian cynomolgus monkey, Laval University Disability Scale; type: in vivo; conditions: MPTP monkeys
Source text: A typical animal model for idiopathic Parkinson's disease is the Parkinsonian cynomolgus monkey according to P. J. Blanchet et al., Exp. Neurology 1998; 153: 214-222. Monkeys render parkinsonian by repeated injections of 1-methyl-4-phenyl-1,2,3,6-tetrahydropyridine (MPTP). Parkinsonian symptoms are qualitatively assessed by the use of the Laval University Disability Scale (B. Gomez-Mancilla et al., 1993; Mov. Disord. 8: 144-150) measuring the following symptoms: posture, mobility, climbing, gait, holding food, vocalizing, grooming, social interaction.

[2] = system: genetically dystonic hamsters; assay: Mutant dystonic hamster; conditions: in vivo
Source text: A typical animal model is the mutant dystonic hamster according to A. Richter and […], Prog. Neurobiol. 1998; 54: 633-677. In this genetically dystonic hamsters, dystonic attacks are provoked by taking the animal from the home cage and placing it on a balance. The dystonic syndrome consists of a sequence of abnormal movements, and the severity of the single symptoms is rated by a scoring system.

[3] = system: oxotremorine-induced tremor; assay: Oxotremorine-induced tremor; conditions: in vivo
Procedure: A typical animal model for drug-induced tremors is the oxotremorine-induced tremor (e.g. H. Hallberg and O. Almgren, Acta Physiol. Scand., 1987; 129: 407-13; J. G. Clement and W. R. Dyck, J. Pharmacol. Meth., 1989; 22: 25-36). Oxotremorine induces tremor which is measured by a rating scale.

3-NP treated rats = assay: Systemic 3-nitropropionic acid (3-NP) model in rats; type: in vivo, rat; conditions: for nocturnal akinesia (hypoactivity): after four injections of 3-NP (late Huntington's disease); for nocturnal hyperactivity: after two injections of 3-NP (early Huntington's disease)
Source text: A typical animal model is the systemic 3-nitropropionic acid (3-NP) model in rats according to C. V. Borlongan et al., Brain Res., 1995; 697: 254-257. […] After two injections of 3-NP, rats display nocturnal hyperactivity reflecting symptoms of early Huntington's disease, whereas rats treated with four injections of 3-NP display nocturnal akinesia (hypoactivity) reflecting symptoms of late Huntington's disease. Nocturnal activity is automatically measured in conventional acitivity cages by infrared beams.

[4] = system: rats challenged with haloperidol; assay: Neuroleptics-induced muscle rigidity in rats; conditions: rat, in vivo
Source text: A typical animal model is neuroleptics-induced muscle rigidity in rats according to S. Wolfarth et al, Arch. Pharmacol. 1992; 345: 209-212. Rats are challenged with the conventional neuroleptic drug haloperidol which enhances muscle tone. Muscle tone is electromechanically measured as the resistence to passive flexion and extension of the hind limb.

[5] = system: reserpinized rat or mouse; assay: Reserpinized rat or mouse (akinesia); type: in vivo; conditions: 24 h after reserpine; for distance travelled and time active: activity meters
Procedure: A typical animal model is the reserpinized rat or mouse (e.g. […]. Neural Transm.-Park. Dis. Dement. Sect., 1994; 7: 133-142; M. Gossel et al., J. Neural Transm.-Park. Dis. Dement. Sect., 1995; 10: 27-39; N. R. Hughes et al., Mov. Disord., 1998; 13: 228-233). Reserpine is a potent depleter of monoamines and produces nearly complete akinesia in both species. Prominent 24 h after application, the distance travelled and the time active is nearly zero as measured in conventional activity meters.

dopamine D2 receptor = dopamine D2 receptor (Homo sapiens, UniProt P14416); assay: D2 antagonism; conditions: under increased doses
dopamine D2 receptor, sequence (P14416 whole entry, species assumed): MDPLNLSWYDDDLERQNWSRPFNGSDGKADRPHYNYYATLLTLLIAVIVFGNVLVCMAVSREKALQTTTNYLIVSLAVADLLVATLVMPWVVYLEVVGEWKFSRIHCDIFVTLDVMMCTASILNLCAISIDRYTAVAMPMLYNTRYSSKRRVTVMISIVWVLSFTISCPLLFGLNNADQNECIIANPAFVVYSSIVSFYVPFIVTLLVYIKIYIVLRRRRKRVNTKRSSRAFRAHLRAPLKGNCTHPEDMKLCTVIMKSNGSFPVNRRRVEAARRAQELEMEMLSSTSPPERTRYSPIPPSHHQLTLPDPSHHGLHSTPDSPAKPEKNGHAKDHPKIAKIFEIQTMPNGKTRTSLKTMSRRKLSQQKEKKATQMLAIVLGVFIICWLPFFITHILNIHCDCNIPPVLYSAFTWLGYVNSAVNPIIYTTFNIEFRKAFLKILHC

Pietrain pig = assay: Campus Syndrome in the Pietrain pig (tremor); type: in vivo
Source text: Typical genetic models in mutant animals are the Campus Syndrome in the Pietrain pig according to A. Richter et al. (Exp. Neurology, 1995; 134: 205-213) or the Weaver mutant mouse according to J. R. Simon and B. Ghetti (Mol. Neurobiol., 1994; 9: 183-189). In the Campus Syndrome model, these mutant pigs show a high-frequency tremor when standing and during locomotion, but not while lying at rest. Assessment of tremor is made by accelerometric recording. In the Weaver mutant mouse, degenerative cerebellar atrophy is fould in association with tremor, gait instability, and toppling over the sides after a few steps.

Compound	parkinsonian symptoms (Laval University Disability Scale) [1]	total activity [1]	severity of dystonic symptoms (score) [2]	oxotremorine-induced tremors (rating scale) [3]	nocturnal akinesia (hypoactivity) (3-NP treated rats)	nocturnal hyperactivity (3-NP treated rats)	muscle tone enhanced by haloperidol (resistance to passive flexion and extension of the hind limb) [4]	akinesia [5]	distance travelled and time active [5]	D2 antagonism (dopamine D2 receptor)	tremor when standing and during locomotion (Pietrain pig)
Fc1ccc(-c2cncc(CNCC3CCc4ccccc4O3)c2)cc1 (racemic) [(R/S)-(−/+)-2-[5-(4-fluorophenyl)-3-pyridylmethylaminomethyl]-chromane]	reduced all the parkinsonian symptoms	increased total activity	dose-dependently reduce the severity of dystonic symptoms	inhibit oxotremorine-induced tremors	reduce	reduce	decrease the mucle tone enhanced by haloperidol	dose-dependently reduced akinesia	restored distance travelled and time active to about the level of normal animals	exhibit a D2 antagonism	reduce disabling tremor
Fc1ccc(-c2cncc(CNC[C@@H]3CCc4ccccc4O3)c2)cc1 [(S)-(+)-2-[5-(4-fluorophenyl)-3-pyridylmethylaminomethyl]-chromane]	reduced all the parkinsonian symptoms	increased total activity	dose-dependently reduce the severity of dystonic symptoms	inhibit oxotremorine-induced tremors	reduce	reduce	decrease the mucle tone enhanced by haloperidol	dose-dependently reduced akinesia	restored distance travelled and time active to about the level of normal animals	exhibit a D2 antagonism	reduce disabling tremor
